The values that follow are results of earlier work, collected in patent US11547674B2, “Protein-polymer hybrid biomaterials” (The Regents of the University of California, priority 2018, dated 2023).

The target of this data set is Bacillus stearothermophillus LDH (Geobacillus stearothermophilus, UniProt P00344). The note with it: read-out: Km of oxamate for LDH.
Bacillus stearothermophillus LDH, sequence (P00344 whole entry): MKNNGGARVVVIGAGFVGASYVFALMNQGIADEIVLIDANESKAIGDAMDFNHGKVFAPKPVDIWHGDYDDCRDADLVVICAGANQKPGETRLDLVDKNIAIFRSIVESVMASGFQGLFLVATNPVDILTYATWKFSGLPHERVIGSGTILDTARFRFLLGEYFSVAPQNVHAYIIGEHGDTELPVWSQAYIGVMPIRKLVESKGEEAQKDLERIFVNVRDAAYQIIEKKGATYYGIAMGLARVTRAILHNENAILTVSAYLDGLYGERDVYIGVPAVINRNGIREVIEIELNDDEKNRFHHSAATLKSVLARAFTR

As usually defined, the Km is the concentration of substrate that gives half-maximal velocity. For the compound `NC(=O)C(=O)O` [oxamate], the Km is 600 µM.
